Measurements from patent US4945162A, “Novel radioactive propyl 2-iodospiroperidol and processes for the preparation thereof” (Sumitomo Chemical Company, Limited, priority 1986, dated 1990).
pIC50, pKi: −log10 of the molar value.

Molecular target: T1, Dopamine Receptors (Rat Striatal Membranes) (Rattus norvegicus, UniProt P61169)
T1 construct: For ^3 H-SP to Rat Striatal Membranes; from tissue; host or cells: rat striatum (membranes)
Assay: Inhibition of specific ^3 H-SP binding (dopamine receptor binding affinity) to rat striatal membranes
Conditions: for pKi / pIC50: 23° C., 30 minutes, ketanserine present; for pIC50: nonspecific binding with (+)butaclamol, triplicate; for Relative Potency: relative to 2-ISP = 100
Protocol: PISP, 2-ISP and MISP were screened as for the dopamine receptor binding affinity according to the method reported by Hamblin [Biochem. Pharmacol. 33, 877-887 (1984)]. An aliquot of striatal membrane preparations was incubated at 23° C. for 30 minutes with each of the unlabeled competing drugs (PISP, 2-ISP and MISP) in different concentration, ketanserine and ^3 H-spiroperidol (hereinafter referred to as ^3 H-SP). The incubation was terminated by adding ice-cold TEAN buffer followed by a rapid filtration through a Whatman GF/B filter. The bound ^3 H-SP retained on the filter was extracted with ACS II (Amersham) and counted. All incubations were done in triplicate. Nonspecific binding was determined in tubes containing (+)butaclamol. Specific binding was calculated by subtracting the nonspecific binding from the total binding. IC50 values, the concentrations of the tested compounds that cause 50% inhibition of the specific ^3 H-SP binding, were assessed using from six to eight samples at different concentrations, in triplicate.

T1 sequence (P61169 whole entry): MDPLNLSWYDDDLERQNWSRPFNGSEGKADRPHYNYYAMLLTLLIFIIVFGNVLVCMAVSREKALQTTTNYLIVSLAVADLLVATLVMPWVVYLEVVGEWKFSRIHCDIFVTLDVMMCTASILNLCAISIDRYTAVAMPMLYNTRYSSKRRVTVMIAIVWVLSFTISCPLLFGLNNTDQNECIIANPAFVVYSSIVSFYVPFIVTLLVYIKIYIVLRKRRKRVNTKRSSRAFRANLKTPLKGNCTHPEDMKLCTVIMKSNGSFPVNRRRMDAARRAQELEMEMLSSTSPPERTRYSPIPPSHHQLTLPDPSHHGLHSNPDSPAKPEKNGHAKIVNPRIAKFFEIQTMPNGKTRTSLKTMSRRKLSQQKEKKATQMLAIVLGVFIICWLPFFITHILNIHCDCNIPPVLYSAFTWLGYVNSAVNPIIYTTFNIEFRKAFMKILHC

## CCCN1CN(c2ccccc2)C2(CCN(CCCC(=O)c3ccc(F)cc3I)CC2)C1=O [PISP, 8-[4-(4-fluoro-2-iodophenyl)-4-oxobutyl]-3-propyl-1-phenyl-1,3,8-triazaspiro[4.5]decan-4-one]
  pKi: 9.70
  pIC50: 8.60
  Relative Potency: 500

## CN1CN(c2ccccc2)C2(CCN(CCCC(=O)c3ccc(F)cc3I)CC2)C1=O [MISP, methyl 2-iodospiroperidol]
  pKi: 8.30
  pIC50: 7.26
  Relative Potency: 20

## O=C(CCCN1CCC2(CC1)C(=O)NCN2c1ccccc1)c1ccc(F)cc1I [2-ISP, 2-iodospiroperidol]
  pKi: 9.00
  pIC50: 7.96
  Relative Potency: 100
